Assay results reported in patent US9708314B2, “Heterocyclic amide compound” (NISSAN CHEMICAL INDUSTRIES, LTD., priority 2013, dated 2017).

Assays:
Type in all cases: in vivo
[1] = system: Echinochloa oryzacola Vasing.; test: Test Example 1: herbicidal activity, application before weed generation in submerged conditions; details: Application herbicide amount 320 g/ha; Seventeenth Table
Source text: (§1) [Test Example 1] Herbicidal Activity Test by Application Before Weed Generation in Submerged Conditions After alluvial soil was placed into 1/10000 are of Wagner pot, water was poured and mixed to form a submerged condition having a water depth of 4 cm. Seeds of Echinochloa oryzacola Vasing., Scirpus juncoides, and Monochoria vaginalis were sowed in a mixed manner in the above pot and thereafter 2.5 leaf stage Oryza sativa seedling was transplanted. On the day of sowing seeds, the emulsion agent containing the compound of the present invention prepared in accordance with Formulation Example 2 was diluted with water so as to be a predetermined herbicide amount and the diluted compound was applied to the surface of the water. The pot was placed in a greenhouse of 25° C. to 30° C. to grow plant. Three weeks after the herbicide application, effects on each plant were investigated in accordance with the following criteria. Criteria 5 Herbicidal ratio of 90% or more (almost completely withered) 4 Herbicidal ratio of 70% or more and less than 90% 3 Herbicidal ratio of 40% or more and less than 70% 2 Herbicidal ratio of 20% or more and less than 40% 1 Herbicidal ratio of 5% or more and less than 20% 0 Herbicidal ratio of 5% or less (almost no effect) A: Echinochloa oryzicola Vasing., B: Scirpus juncoides, C: Monochoria vaginalis, D: Leptochloa chinensis, E: Cyperus difformis, F: Digitaria ciliaris, G: Setaria viridis, H: Echinochloa crus-galli var. crus-galli, I: Avena fatua, J: Alopecurus myosuroides, K: Lolium multiflorum Lam., L: Apera spica-venti., M: Abutilon theophrasti, N: Amaranthus retroflexus, O: Chenopodium album, P: Stellaria media, Q: Galium spurium, R: Veronica persica, a: transplanted Oryza sativa, b: directly sowed Oryza sativa, c: Zea mays, d: Glycine max, e: Triticum aestivum, f: Beta vulgaris ssp. vulgaris, and g: Brassica campestris L. The application herbicide amount (g/ha) means an amount that a concentration is adjusted so that, when an application amount is converted into per hectare (1 ha), the herbicide is applied by the number of grams (g) of the described value.

Scirpus juncoides = test: as above; details: Application herbicide amount 320 g/ha; Seventeenth Table
Source text: as §1

Monochoria vaginalis = test: as above; details: Application herbicide amount 320 g/ha; Seventeenth Table
Source text: as §1

Alopecurus myosuroides = test: Test Example 4: herbicidal effect by application to foliage (diluvial soil, plastic box); details: for J (Alopecurus myosuroides) herbicidal effect: application to foliage, application herbicide amount 320 g/ha; for J: Application herbicide amount 320 g/ha
Summary of the method: (§2)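 Emulsion-formulated compound, diluted to a predetermined g/ha dose, applied by small sprayer to leaves and stems of 14-day-old seedlings grown in sterilized diluvial soil. Effect rated on 0–5 herbicidal-ratio scale three weeks on.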

Abutilon theophrasti = test: as above; details: for M (Abutilon theophrasti) herbicidal effect: application to foliage, application herbicide amount 320 g/ha; for M: Application herbicide amount 320 g/ha
Summary of the method: as §2

Galium spurium = test: as above; details: for Q (Galium spurium) herbicidal effect: application to foliage, application herbicide amount 320 g/ha; for Q: Application herbicide amount 320 g/ha
Summary of the method: as §2

Digitaria ciliaris = test: as above; details: for F (Digitaria ciliaris) herbicidal effect: application to foliage, application herbicide amount 320 g/ha; for F: Application herbicide amount 320 g/ha
Summary of the method: as §2

Avena fatua = test: as above; details: for I (Avena fatua) herbicidal effect: application to foliage, application herbicide amount 320 g/ha; for I: Application herbicide amount 320 g/ha
Summary of the method: as §2

Chenopodium album = test: as above; details: for O (Chenopodium album) herbicidal effect: application to foliage, application herbicide amount 320 g/ha; for O: Application herbicide amount 320 g/ha
Summary of the method: as §2

Setaria viridis = test: as above; details: for G (Setaria viridis) herbicidal effect: application to foliage, application herbicide amount 320 g/ha; for G: Application herbicide amount 320 g/ha
Summary of the method: as §2

Lolium multiflorum Lam. = test: as above; details: for K (Lolium multiflorum Lam.) herbicidal effect: application to foliage, application herbicide amount 320 g/ha; for K: Application herbicide amount 320 g/ha
Summary of the method: as §2

[2] = system: Echinochloa crus-galli var. crus-galli; test: as above; details: for H (Echinochloa crus-galli var. crus-galli) herbicidal effect: application to foliage, application herbicide amount 320 g/ha; for H: Application herbicide amount 320 g/ha
Summary of the method: as §2

Veronica persica = test: as above; details: for R (Veronica persica) herbicidal effect: application to foliage, application herbicide amount 320 g/ha; for R: Application herbicide amount 320 g/ha
Summary of the method: as §2

Apera spica-venti. = test: as above; details: for L (Apera spica-venti.) herbicidal effect: application to foliage, application herbicide amount 320 g/ha; for L: Application herbicide amount 320 g/ha
Summary of the method: as §2

Structure (SMILES) | A: Echinochloa oryzicola Vasing. (herbicidal effect grade) [1] | B: Scirpus juncoides (herbicidal effect grade) (Scirpus juncoides) | C: Monochoria vaginalis (herbicidal effect grade) (Monochoria vaginalis) | J (Alopecurus myosuroides) herbicidal effect (Alopecurus myosuroides) | M (Abutilon theophrasti) herbicidal effect (Abutilon theophrasti) | Q (Galium spurium) herbicidal effect (Galium spurium) | F (Digitaria ciliaris) herbicidal effect (Digitaria ciliaris) | I (Avena fatua) herbicidal effect (Avena fatua) | O (Chenopodium album) herbicidal effect (Chenopodium album) | G (Setaria viridis) herbicidal effect (Setaria viridis) | J (Alopecurus myosuroides) | M (Abutilon theophrasti) | Q (Galium spurium) | F (Digitaria ciliaris) | I (Avena fatua) | O (Chenopodium album) | G (Setaria viridis) | K (Lolium multiflorum Lam.) | H [2] | L (Apera spica-venti.) | also measured
Cc1nnc(NC(=O)c2ccc(C(F)(F)F)n3cnnc23)o1 [1-001] | 3 (Herbicidal ratio of 40% or more and less than 70%) | 2 (Herbicidal ratio of 20% or more and less than 40%) | 2 (Herbicidal ratio of 20% or more and less than 40%) | 1 (Herbicidal ratio of 5% or more and less than 20%) | 3 (Herbicidal ratio of 40% or more and less than 70%) | 4 (Herbicidal ratio of 70% or more and less than 90%) | 4 (Herbicidal ratio of 70% or more and less than 90%) | 1 (Herbicidal ratio of 5% or more and less than 20%) | 5 (Herbicidal ratio of 90% or more (almost completely withered)) | 3 (Herbicidal ratio of 40% or more and less than 70%) |  |  |  |  |  |  |  |  |  |  | K (Lolium multiflorum Lam.) herbicidal effect (Lolium multiflorum Lam.): 1 (Herbicidal ratio of 5% or more and less than 20%); H (Echinochloa crus-galli var. crus-galli) herbicidal effect [2]: 4 (Herbicidal ratio of 70% or more and less than 90%); R (Veronica persica) herbicidal effect (Veronica persica): 4 (Herbicidal ratio of 70% or more and less than 90%); L (Apera spica-venti.) herbicidal effect (Apera spica-venti.): 1 (Herbicidal ratio of 5% or more and less than 20%)
Cc1nnc(NC(=O)c2ccc(C(F)(F)F)n3c(C(C)C)nnc23)o1 [1-004, 3-Isopropyl-N-(5-methyl-1,3,4-oxadiazol-2-yl)-5-(trifluoromethyl)-[1,2,4]triazolo[4,3-a]pyridine-8-carboxamide] | 5 (Herbicidal ratio of 90% or more (almost completely withered)) | 4 (Herbicidal ratio of 70% or more and less than 90%) | 4 (Herbicidal ratio of 70% or more and less than 90%) | 2 (Herbicidal ratio of 20% or more and less than 40%) | 4 (Herbicidal ratio of 70% or more and less than 90%) | 1 (Herbicidal ratio of 5% or more and less than 20%) | 5 (Herbicidal ratio of 90% or more (almost completely withered)) | 2 (Herbicidal ratio of 20% or more and less than 40%) | 5 (Herbicidal ratio of 90% or more (almost completely withered)) | 4 (Herbicidal ratio of 70% or more and less than 90%) |  |  |  |  |  |  |  |  |  |  | K (Lolium multiflorum Lam.) herbicidal effect (Lolium multiflorum Lam.): 2 (Herbicidal ratio of 20% or more and less than 40%); H (Echinochloa crus-galli var. crus-galli) herbicidal effect [2]: 5 (Herbicidal ratio of 90% or more (almost completely withered)); R (Veronica persica) herbicidal effect (Veronica persica): 4 (Herbicidal ratio of 70% or more and less than 90%); L (Apera spica-venti.) herbicidal effect (Apera spica-venti.): 3 (Herbicidal ratio of 40% or more and less than 70%)
COCC[S+]([O-])c1nnc2c(C(=O)Nc3nnc(C)o3)ccc(C(F)(F)F)n12 (centres unmarked) [1-073] | 4 (Herbicidal ratio of 70% or more and less than 90%) | 3 (Herbicidal ratio of 40% or more and less than 70%) | 2 (Herbicidal ratio of 20% or more and less than 40%) |  |  |  |  |  |  |  | 2 (Herbicidal ratio of 20% or more and less than 40%) | 5 (Herbicidal ratio of 90% or more (almost completely withered)) | 2 (Herbicidal ratio of 20% or more and less than 40%) | 5 (Herbicidal ratio of 90% or more (almost completely withered)) | 3 (Herbicidal ratio of 40% or more and less than 70%) | 5 (Herbicidal ratio of 90% or more (almost completely withered)) | 5 (Herbicidal ratio of 90% or more (almost completely withered)) | 3 (Herbicidal ratio of 40% or more and less than 70%) | 5 (Herbicidal ratio of 90% or more (almost completely withered)) | 3 (Herbicidal ratio of 40% or more and less than 70%) | 
C=CC[S+]([O-])c1nnc2c(C(=O)Nc3nnc(C)o3)ccc(C(F)(F)F)n12 (centres unmarked) [1-074] | 2 (Herbicidal ratio of 20% or more and less than 40%) | 2 (Herbicidal ratio of 20% or more and less than 40%) | 0 (Herbicidal ratio of 5% or less (almost no effect)) |  |  |  |  |  |  |  | 0 (Herbicidal ratio of 5% or less (almost no effect)) |  | 3 (Herbicidal ratio of 40% or more and less than 70%) | 4 (Herbicidal ratio of 70% or more and less than 90%) | 1 (Herbicidal ratio of 5% or more and less than 20%) | 5 (Herbicidal ratio of 90% or more (almost completely withered)) | 4 (Herbicidal ratio of 70% or more and less than 90%) | 0 (Herbicidal ratio of 5% or less (almost no effect)) | 5 (Herbicidal ratio of 90% or more (almost completely withered)) | 0 (Herbicidal ratio of 5% or less (almost no effect)) | R (Veronica persica): 3 (Herbicidal ratio of 40% or more and less than 70%)
Cc1nnc(NC(=O)c2ccc(C(F)(F)F)n3c(C(C)S(C)(=O)=O)nnc23)o1 (centres unmarked) [1-080] | 5 (Herbicidal ratio of 90% or more (almost completely withered)) | 4 (Herbicidal ratio of 70% or more and less than 90%) | 4 (Herbicidal ratio of 70% or more and less than 90%) |  |  |  |  |  |  |  | 5 (Herbicidal ratio of 90% or more (almost completely withered)) | 5 (Herbicidal ratio of 90% or more (almost completely withered)) | 5 (Herbicidal ratio of 90% or more (almost completely withered)) | 5 (Herbicidal ratio of 90% or more (almost completely withered)) | 4 (Herbicidal ratio of 70% or more and less than 90%) | 5 (Herbicidal ratio of 90% or more (almost completely withered)) | 5 (Herbicidal ratio of 90% or more (almost completely withered)) | 4 (Herbicidal ratio of 70% or more and less than 90%) | 5 (Herbicidal ratio of 90% or more (almost completely withered)) | 5 (Herbicidal ratio of 90% or more (almost completely withered)) | 
Cc1nnc(NC(=O)c2ccc(C(F)(F)F)n3c(CCS(C)(=O)=O)nnc23)o1 [1-085] | 3 (Herbicidal ratio of 40% or more and less than 70%) | 4 (Herbicidal ratio of 70% or more and less than 90%) | 3 (Herbicidal ratio of 40% or more and less than 70%) |  |  |  |  |  |  |  | 3 (Herbicidal ratio of 40% or more and less than 70%) | 5 (Herbicidal ratio of 90% or more (almost completely withered)) | 4 (Herbicidal ratio of 70% or more and less than 90%) | 5 (Herbicidal ratio of 90% or more (almost completely withered)) |  | 5 (Herbicidal ratio of 90% or more (almost completely withered)) | 5 (Herbicidal ratio of 90% or more (almost completely withered)) | 3 (Herbicidal ratio of 40% or more and less than 70%) | 5 (Herbicidal ratio of 90% or more (almost completely withered)) | 3 (Herbicidal ratio of 40% or more and less than 70%) | R (Veronica persica): 5 (Herbicidal ratio of 90% or more (almost completely withered))
